Results reported in US12060408B2, “Screening assays, modulators and modulation of activation of Receptor for Advanced Glycation End-products (RAGE)” (Monash University, priority 2017, dated 2024).

What was measured:
[1] = target: T1, IQGAP-1 (Cricetulus griseus, UniProt A0A8C2MPD4); experiment: Pull down from cytosolic components on a column coated with S391A-RAGE362-404; format: binding; conditions: column coated with the peptide
T1 construct: 5×10^7 CHO cells stably transfected with Hs-AT1R were lysed using RIPA buffer; endogenous in cells; host or cells: lysate of CHO cells stably transfected with Hs-AT1R
Text: FIG. 11C. Pull down of a protein identified as IQGAP-1 from other cytosolic components using a column coated with the mutant RAGE cytosolic tail (S391A-RAGE362-404), as well as IQGAP-1 associated proteins, ezrin/radixin/moesin and the GPCR olfactory receptor 2T2.

[2] = tested on: RAGE ligand-dependent activation of RAGE; experiment: S100A8/A9-induced NFκB activation (p65 gene expression) in CHO cells expressing RAGE constructs; format: cell-based, human
Protocol: Generation of Transgenic Chinese Hamster Ovary Cells
100 ng of AT1R-Rluc8 construct was transfected into CHO cells using Lipofectamine 2000 (Thermo). Stable transfectants were selected using G418. AT1R—CHO were then transiently transfected with RAGE constructs using Lipofectamine 2000 (Invitrogen) and incubated for 16 h. The Homo sapiens AGER transcript variant 1 coding sequence (NM_001136) was synthesised and cloned between the NheI and XbaI sites of pCIneo (Promega) to generate the vector pCIneo-RAGE. This plasmid was then used to generate a library of mutant AGER clones (NP_001127). Primers 1-RAGE-SP-5′ and mCherry-XhoI-NotI-3′ were used to amplify the coding sequence of mCherry from the vector pmCherry-C1. The resultant PCR product was then used as template for a second PCR using primers 2-RAGE-SP-5′ and mCherry-XhoI-NotI-3′. The PCR product generated was digested with NheI and NotI and inserted between the NheI and NotI sites of pCIneo to generate pCIneo-SP-mCherry. The sequence of the insert was confirmed by DNA sequencing (Micromon, Monash University). […]
Cellular Expression of Pro-Inflammatory Markers and Mediators by Quantitative Real-Time PCR
After 2 hours of exposure to Ang II (1 μM) or the RAGE ligand, S100A8/A9 (5 ng/ml) cells were placed in Trizol, mRNA extracted and cDNA synthesized. Changes in the gene expression of the NFκB subunit, p65 (RelA) or NFκB-activated target genes (e.g ICAM-1, VCAM-1) were estimated by quantitative real-time RT-PCR, performed using the TaqMan system based on real-time detection of accumulated fluorescence (ABI Prism 7700, Perkin-Elmer Inc, PE Biosystems, Foster City, CA, USA). Gene expression was normalized to 18S mRNA and reported as fold change compared to the level of expression in untreated control mice/cells, which were given an arbitrary value of 1.
To measure the induction of NFκB activity by 1 μM Ang II, or 5 ng/ml of the RAGE-ligand S100A8/A9 as a signalling control, AT1R—CHO cells were transfected with 0.4 μg of plasmids encoding NFκB-SEAP or β-galactosidase (β-Gal) using Lipofectamine 2000 (Invitrogen) as per manufacturer's instructions. After 24 hours, cells transfected with each plasmid combination were then treated with Ang II (1 μM) or left untreated and incubated for 4 hours before cell supernatants and cell lysates were collected. Cell supernatants were analysed using a chemiluminescent SEAP reporter gene assay (Roche Applied Science) to detect SEAP production after treatment. To control for transfection efficiency, cell lysates were assayed for β-Gal using a commercially available kit (Promega).

[3] = tested on: apoE KO mice; experiment: Induction of oxidative stress (plasma 8-OHdG ELISA, aortic NOX-1/NOX-4 RT-PCR); format: in vivo, mouse; conditions: four-week infusion 1 μg/kg/min
Text: Induction of Oxidative Stress
The induction of oxidative stress in each animal model was estimated by the measurement of plasma levels of 8-hydroxydeoxyguanosine using the OxiSelect Oxidative DNA Damage ELISA Kit (8-OHdG Quantitation; Cell Biolabs, Inc), and performed as per manufacturer's instructions. In addition, gene expression of the superoxide-producing NADPH oxidase subunits, NOX-1 and NOX-4 were quantitated in the aortae of mice using real time RT-PCR, as detailed above.

[4] = Circulating concentration of RAGE ligands (S100A8/A9, AGEs, methylglyoxal); format: in vivo, mouse; conditions: four-week infusion 1 μg/kg/min
Protocol: Circulating Concentration of RAGE Ligands
Changes in circulating levels of RAGE ligands were assessed in animal models. S100A8/A9 levels were estimated by ELISA (Immundiagnostik, Germany) performed according to the manufacturer's instructions. Plasma AGEs were measured by in-house ELISA. Plasma methylglyoxal, a reactive precursor of AGEs, was measured by HPLC.

[5] = tested on: isolated aortae; experiment: Ex vivo exposure of isolated aortae to Ang II, expression of pro-atherogenic mediators by RT-PCR; design: species or system mouse; conditions: 1 μM
Protocol: At the end of each study period, thoracic and abdominal aortae were placed in TRIZOL, snap frozen and stored at −80° C. RNA extraction and cDNA synthesis was performed in aortic homogenates using the Trizol method. Gene expression of pro-atherogenic mediators including adhesion molecules, cytokines, inflammatory, oxidative stress and macrophage markers, were estimated in aortic homogenates by quantitative real-time RT-PCR, performed using the TaqMan system based on real-time detection of accumulated fluorescence (ABI Prism 7700, Perkin-Elmer Inc, PE Biosystems, Foster City, CA, USA). Gene expression was normalized to 18S mRNA and reported as fold change compared to the level of expression in untreated control mice/cells, which were given an arbitrary value of 1.
Ex Vivo Studies in Isolated Aortae
Aortae were isolated from apoE KO and AGER/apoE DKO mice, divided and placed in Krebs buffer and maintained at physiological pH by infusing carbogen gas (95% O2; 5% CO2) through the buffer at 37° C. Vessels (n=6/group) were then treated with Ang II (1 μM) for 4 hours. After which time, whole blood labelled with DilC18 (1:1000) was then perfused through the aorta at 0.12 ml/min. Images and videos of vessel wall-cell interactions were observed using a fluorescence microscope (Zeiss Discovery.V20), coupled to a digital camera ([…] ORCA-ER) and analysed with AxioVison software.

T1 sequence (A0A8C2MPD4 1-1657): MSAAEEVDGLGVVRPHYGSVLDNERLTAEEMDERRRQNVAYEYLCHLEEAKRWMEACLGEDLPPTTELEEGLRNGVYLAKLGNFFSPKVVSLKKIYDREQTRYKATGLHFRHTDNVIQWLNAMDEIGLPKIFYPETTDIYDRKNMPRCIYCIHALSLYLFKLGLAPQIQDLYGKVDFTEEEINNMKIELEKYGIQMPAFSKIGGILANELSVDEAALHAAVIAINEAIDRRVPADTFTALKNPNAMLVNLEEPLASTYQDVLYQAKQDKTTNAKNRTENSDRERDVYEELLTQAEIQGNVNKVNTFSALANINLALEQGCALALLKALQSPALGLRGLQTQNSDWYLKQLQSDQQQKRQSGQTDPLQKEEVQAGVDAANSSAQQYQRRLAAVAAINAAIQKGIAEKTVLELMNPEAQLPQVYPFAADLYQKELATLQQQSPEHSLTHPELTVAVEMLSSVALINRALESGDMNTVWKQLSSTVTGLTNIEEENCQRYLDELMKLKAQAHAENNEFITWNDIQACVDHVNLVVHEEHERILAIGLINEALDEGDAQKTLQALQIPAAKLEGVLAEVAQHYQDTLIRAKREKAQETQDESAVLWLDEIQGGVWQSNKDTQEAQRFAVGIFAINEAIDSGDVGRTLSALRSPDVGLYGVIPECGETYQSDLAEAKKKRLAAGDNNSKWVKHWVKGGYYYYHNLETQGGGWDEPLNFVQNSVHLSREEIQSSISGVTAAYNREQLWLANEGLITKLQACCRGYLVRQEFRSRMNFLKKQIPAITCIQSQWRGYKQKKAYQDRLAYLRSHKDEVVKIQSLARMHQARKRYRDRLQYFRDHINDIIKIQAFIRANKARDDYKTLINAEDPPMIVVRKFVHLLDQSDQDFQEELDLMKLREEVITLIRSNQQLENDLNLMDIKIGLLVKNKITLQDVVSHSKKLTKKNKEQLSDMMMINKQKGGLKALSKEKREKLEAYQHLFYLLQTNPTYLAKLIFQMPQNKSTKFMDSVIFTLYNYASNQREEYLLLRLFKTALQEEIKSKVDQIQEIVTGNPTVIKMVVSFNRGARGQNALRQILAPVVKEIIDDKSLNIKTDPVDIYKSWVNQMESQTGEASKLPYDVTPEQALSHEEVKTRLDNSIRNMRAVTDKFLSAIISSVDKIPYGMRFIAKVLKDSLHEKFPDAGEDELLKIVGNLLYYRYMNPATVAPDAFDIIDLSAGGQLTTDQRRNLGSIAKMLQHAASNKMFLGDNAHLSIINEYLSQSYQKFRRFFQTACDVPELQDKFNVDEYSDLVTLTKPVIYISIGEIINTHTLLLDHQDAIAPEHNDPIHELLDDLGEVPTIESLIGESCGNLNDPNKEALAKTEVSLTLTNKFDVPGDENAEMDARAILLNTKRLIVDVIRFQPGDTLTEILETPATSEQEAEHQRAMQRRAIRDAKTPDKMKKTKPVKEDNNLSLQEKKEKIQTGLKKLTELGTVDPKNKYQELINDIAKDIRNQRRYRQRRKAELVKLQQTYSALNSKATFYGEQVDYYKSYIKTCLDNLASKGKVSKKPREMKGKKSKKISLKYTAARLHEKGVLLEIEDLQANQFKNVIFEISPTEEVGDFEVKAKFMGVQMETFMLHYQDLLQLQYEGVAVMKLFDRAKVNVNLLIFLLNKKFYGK

Substance	pull down of IQGAP-1 (and ezrin/radixin/moesin, olfactory receptor 2T2) from cytosolic components [1]	inhibition of S100A8/A9-induced p65 expression ([2]; AT1R-CHO cells also expressing full length RAGE)	inhibition of RAGE ligand-dependent activation of wild-type RAGE (S100A8/A9) ([2]; summary statement, cell system not given)	oxidative stress ([3]; AGER/apoE DKO mice)	markers of oxidative stress ([3]; apoE KO mice)	circulating levels of RAGE ligands ([4]; AGER/apoE DKO mice)	circulating levels of RAGE ligands (S100A8/A9, AGEs, dicarbonyl precursors) ([4]; apoE KO mice)	induction of atherogenic mediators ([5]; aortae from AGER/apoE DKO mice)	expression of pro-atherogenic mediators ([5]; isolated aortae from apoE KO mice)
L362WQRRQRRGEERKAPENQEEEEERAELNQAEEPEAGESSTGGP404 (LWQRRQRRGEERKAPENQEEEEERAELNQAEEPEAGESSTGGP; listed as Homo sapiens) [S391A-RAGE362-404, S391A mutant RAGE cytosolic tail; non-functional substitute for RAGE]	Pull down	inhibitory effect	inhibits						
angiotensin II (DRVYIHPF) [Ang II, cognate ligand of AT1R]				preventing	increases	preventing	increases	prevents	increases
